These are literature values, as cited in patent US4215038A, “Peptides which inhibit gonadal function” (The Salk Institute for Biological Studies, priority 1978, dated 1980).

Non-standard residues stand in square brackets, D forms with d. pGlu = O=C1CC[C@@H](C(=O)O)N1

For the data set, the system named is release of gonadotropins. Particulars: compared with the 6-Gly peptide.

On to [pGlu]WSY[dA]LRPG-NH2, for which the “potency as an inhibitor for the release of gonadotropins relative to the same peptide with Gly in the 6-position” value is 3 times.
